According to ChEMBL document CHEMBL1201862, “PubChem BioAssay data set” (2004):
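Test compounds were applied to cells in 96-well plates for 48 hours at 5 doses. Here, GI50 denotes the concentration required for 50% inhibition of growth.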 The source made the active and inactive calls. Cut-off read from the data, not from the text of the source: active = GI50 up to about 1.1 µM and inactive = higher.

Key:
Test in all cases: NCI anticancer screen, dose series, 48 h
[1] = system: A498
[2] = system: ACHN
[3] = system: DU-145
[4] = system: HCT-15
[5] = system: HT-29
[6] = system: MDA-MB-435
[7] = system: Malme-3M
[8] = system: NCI-H23
[9] = system: NCI/ADR-RES
[10] = system: OVCAR-4
[11] = system: SF-295
[12] = system: SK-MEL-28
[13] = system: SNB-75
[14] = system: SR
[15] = system: SW-620
[16] = system: U-251
[17] = system: UACC-257
[18] = system: CAKI-1
[19] = system: MDA-N
[20] = system: UACC-62

Row | Compound | GI50 [1] | GI50 [2] | GI50 [3] | GI50 [4] | GI50 [5] | GI50 [6] | GI50 [7] | GI50 [8] | GI50 [9] | GI50 [10] | GI50 [11] | GI50 [12] | GI50 [13] | GI50 [14] | GI50 [15] | GI50 [16] | GI50 [17] | GI50 [18] | GI50 [19] | GI50 [20]
1 | Cc1nc(N)c(N2CCN(S(N)(=O)=O)CC2)c(O)n1 | > 100 µM (inactive) | > 100 µM (inactive) | > 100 µM (inactive) | > 100 µM | > 100 µM (inactive) | > 100 µM (inactive) | > 100 µM (inactive) | > 100 µM (inactive) | > 100 µM (inactive) | > 100 µM (inactive) | > 100 µM (inactive) | > 100 µM (inactive) | > 100 µM (inactive) | > 100 µM (inactive) | > 100 µM (inactive) | > 100 µM (inactive) | > 100 µM (inactive) | – | – | –
2 | Cc1cc(NS(=O)(=O)c2ccc(/N=N/c3c(Nc4ccccc4)nn(-c4ccc(S(=O)(=O)Nc5ccncn5)cc4)c3C)cc2)no1 | – | > 100 µM (inactive) | > 100 µM (inactive) | > 100 µM | > 100 µM (inactive) | > 100 µM (inactive) | > 100 µM (inactive) | > 100 µM (inactive) | > 100 µM (inactive) | > 100 µM (inactive) | > 100 µM (inactive) | > 100 µM (inactive) | > 100 µM (inactive) | – | – | > 100 µM (inactive) | > 100 µM (inactive) | > 100 µM (inactive) | > 100 µM (inactive) | > 100 µM (inactive)
3 | CCCCN1/C(=N/Nc2n[nH]c(=O)c3ccccc23)SCC1c1ccc(Cl)cc1 (stereo unspecified) | 3.47 µM (inactive) | 25.3 µM (inactive) | 22.2 µM (inactive) | 6.52 µM | 24.2 µM (inactive) | 11 µM (inactive) | 22 µM (inactive) | 1.64 µM (inactive) | 8.79 µM (inactive) | 53.3 µM (inactive) | 6.53 µM (inactive) | 19.1 µM (inactive) | 18.6 µM (inactive) | 4.73 µM (inactive) | 19.8 µM (inactive) | 4.92 µM (inactive) | 12.2 µM (inactive) | 20.3 µM (inactive) | – | 7.31 µM (inactive)
4 | O=C(c1ccccc1)n1cc(/C=C/[N+](=O)[O-])c2ccccc21 | > 100 µM (inactive) | > 100 µM (inactive) | – | 19.5 µM | 44.2 µM (inactive) | – | 32.2 µM (inactive) | 20.1 µM (inactive) | – | 27 µM (inactive) | 42 µM (inactive) | 18.5 µM (inactive) | 32.7 µM (inactive) | 19.7 µM (inactive) | 19.6 µM (inactive) | 18.5 µM (inactive) | 21.2 µM (inactive) | 84.9 µM (inactive) | – | 20.1 µM (inactive)
5 | CCOC(=O)/C(=C/c1cccc(Cl)c1)N(CC)CC | > 100 µM (inactive) | 35.5 µM (inactive) | – | 38.7 µM | > 100 µM (inactive) | – | 57.3 µM (inactive) | 27.7 µM (inactive) | – | 47.1 µM (inactive) | 46.3 µM (inactive) | 90.8 µM (inactive) | 70.5 µM (inactive) | > 100 µM (inactive) | 59 µM (inactive) | 43.3 µM (inactive) | 55.8 µM (inactive) | 50.5 µM (inactive) | – | 33.9 µM (inactive)
6 | CSC(SC)(C(=O)O)c1cc(-c2c(Cl)cccc2Cl)no1 | – | 46.9 µM (inactive) | > 100 µM (inactive) | 15.5 µM | 32.9 µM (inactive) | 63.4 µM (inactive) | 60.8 µM (inactive) | 19.2 µM (inactive) | 26.5 µM (inactive) | 37.9 µM (inactive) | 91.2 µM (inactive) | > 100 µM (inactive) | 33 µM (inactive) | 33 µM (inactive) | > 100 µM (inactive) | 28.4 µM (inactive) | 42.9 µM (inactive) | 48.4 µM (inactive) | – | 27.9 µM (inactive)
7 | CC(C)c1ccccc1NC(=O)C(=O)Cc1nc2ccccc2s1 | > 100 µM (inactive) | > 100 µM (inactive) | – | > 100 µM | > 100 µM (inactive) | – | > 100 µM (inactive) | > 100 µM (inactive) | – | > 100 µM (inactive) | > 100 µM (inactive) | > 100 µM (inactive) | > 100 µM (inactive) | > 100 µM (inactive) | > 100 µM (inactive) | > 100 µM (inactive) | > 100 µM (inactive) | > 100 µM (inactive) | – | > 100 µM (inactive)
8 | COc1ccc(/C=C/c2cc(OC)c(OC)c(OC)c2)cc1O[Si](C)(C)C(C)(C)C | 12.7 µM (inactive) | 7.87 µM (inactive) | 7.11 µM (inactive) | 3.33 µM | 37.9 µM (inactive) | 2.26 µM (inactive) | – | 5.62 µM (inactive) | – | 19 µM (inactive) | 26 µM (inactive) | 25.1 µM (inactive) | 2.03 µM (inactive) | – | 2.91 µM (inactive) | 3.11 µM (inactive) | 10.4 µM (inactive) | 41.9 µM (inactive) | 2.27 µM (inactive) | 3.35 µM (inactive)
